This is an account of results in article PMC8976073 (Nature Communications, 2022).

Changes are numbered by the printed parent chain.

The target in assay [1] is T1, FPR2 (Homo sapiens, UniProt P25090).
T1 construct: expressed in transfected cells; host or cells: HEK293F cells, pTT5 vector, co-transfected with GαΔ6qi4myr (1:2 w/w)
T1 sequence (P25090 1-351): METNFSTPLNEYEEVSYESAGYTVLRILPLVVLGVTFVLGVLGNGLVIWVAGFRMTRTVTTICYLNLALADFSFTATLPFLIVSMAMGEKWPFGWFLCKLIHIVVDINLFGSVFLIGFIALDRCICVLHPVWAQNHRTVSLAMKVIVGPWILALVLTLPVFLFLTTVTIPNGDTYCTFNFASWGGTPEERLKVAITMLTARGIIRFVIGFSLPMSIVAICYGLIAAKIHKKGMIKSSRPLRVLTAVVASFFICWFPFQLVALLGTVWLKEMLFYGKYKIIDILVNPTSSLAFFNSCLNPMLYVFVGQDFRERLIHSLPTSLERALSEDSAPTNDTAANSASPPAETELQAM
Put plainly: Inositol-phosphate (IP) accumulation assay, FPR2 (wild type and mutants) with chimeric GαΔ6qi4myr in HEK293F cells. The assay is classed as cell-based. To be noted: FPR2 WT; mean ± SEM; SEM. As to the method:
(§1) Flag-tagged wild-type FPR1 and FPR2 and mutants were cloned into the pTT5 vector and expressed in HEK293F cells. Cells were cotransfected with the plasmids of receptor and a chimeric Gα protein GαΔ6qi4myr, which redirects the Gαi signaling pathway to the Gαq phospholipase-C pathway, at a ratio of 1:2 (w/w), and were harvested 48 h post transfection. The cell-surface expression was measured as described above.
(§2) The IP-One Gq assay kit (Cisbio Bioassays, 62IPAPEB) was used to measure the peptide agonist-induced IP production. […] Then, the cells were supplemented with 3 μl cryptate-labeled anti-IP1 monoclonal antibody (1:20 diluted in lysis and detection buffer) and 3 μl d2-labeled IP1, and incubated at room temperature for another 1 h. […] The accumulation of IP1, EC50, and pEC50 were calculated using nonlinear regression (curve fit) according to a standard dose–response curve in GraphPad Prism 8.0 (GraphPad software).

Assay [2] addresses T2, FPR2 (Homo sapiens, UniProt P25090, F110A).
T2 construct: expressed in transfected cells; host or cells: HEK293F cells, pTT5 vector, co-transfected with GαΔ6qi4myr (1:2 w/w)
T2 sequence (P25090 1-351 F110A): T1 sequence (P25090 1-351) with F110A
Described as above. The assay is classed as cell-based. The conditions noted are these: FPR2 F110A. The procedure:
as §1, §2

Broadly, the EC50 is the concentration at which the effect is half-maximal. A high value points to lower potency in that assay. Take `CC[C@H](C)[C@H](NC(=O)[C@H](CCC(=O)O)NC(=O)[C@H](CO)NC(=O)[C@@H](NC(=O)[C@H](CC(C)C)NC(=O)[C@H](CC(C)C)NC(=O)[C@H](CC(C)C)NC(=O)[C@H](CC(C)C)NC(=O)[C@H](CS)NC(=O)[C@H](CO)NC(=O)[C@H](Cc1ccccc1)NC(=O)CNC(=O)[C@H](CCCNC(=N)N)NC(=O)[C@@H]1CCCN1C(=O)[C@H](C)NC(=O)[C@H](CCSC)NC=O)[C@@H](C)O)C(=O)N[C@@H](CC(=O)O)C(=O)N[C@@H](CC(C)C)C(=O)N1CCC[C@H]1C(=O)N[C@H](C(=O)N[C@@H](CCCCN)C(=O)N[C@@H](CCCNC(=N)N)C(=O)N[C@@H](CCCNC(=N)N)C(=O)N[C@@H](C)C(=O)O)C(C)C` [fHN, N-formyl humanin]: the EC50 was 126 nM at FPR2 [1] and 110 nM at FPR2 [2].
